Laboratory results taken from patent US20180017546A1, “METHODS OF ADMINISTERING AND EVALUATING NITROGEN SCAVENGING DRUGS FOR THE TREATMENT OF HEPATIC ENCEPHALOPATHY” (Horizon Therapeutics, LLC, priority 2012, published 2018).
Read-outs that look alike come from different tables or passages of the source.

Key:
[1] = test system: subjects with cirrhosis and HE; assay: HALT-HE clinical trial: count of HE events over 16 weeks by plasma ammonia level; type: in vivo, human
Method: The relationship between HE events and fasting ammonia levels was evaluated in subjects from the HALT-HE clinical trial (HPN-100-008, ClinicalTrials.gov identifier NCT00999167). To be eligible for HE analysis, subject had to (1) be included in the HALT-HE (Part B) safety population, (2) have at least one treatment with a study drug (either HPN-100 or placebo), and (3) have a quantifiable measurement of plasma ammonia from a blood specimen drawn at the visit and time point of interest. Of the 178 total subjects enrolled in the HALT-HE study and included in the safety population, 171 met the additional criteria.
Fasting ammonia levels were measured on day 1 (baseline) and at days 7 and 14. Day 1 values were derived from the measurement closest to, but prior to, initiation of dosing. Day 7 and 14 values were obtained from the nominal visit day and time point (pre-dose or 4-hour). To account for differences in local laboratories used during the clinical trial, local measurements of ammonia were standardized to an upper limit of normal (ULN) of 35 μmol/L according to the following formula:
Ammoniastd=Ammonialocal*(35/ULN of Ammonialocal).
[…] An HE event was defined as the occurrence of either (1) a West Haven Grade 2 or above or (2) a West Haven Grade 1 AND an asterixis grade increase of 1, if baseline West Haven was 0.
To describe the relationship between plasma ammonia levels and HE events, ammonia levels at the nominal times were initially grouped into five categories as multiples of the standardized ULN (35 μmol/L): (1) [0-≦0.5], (2) [0.5-≦1.0], (3) [1.0-≦1.5], (4) [1.5-≦2.0], and (5) [>2.0].
Each subject had between zero and eight HE episodes over the course of their exposure to study drug. The relationship between ammonia at a given nominal time and the number of HE events was modeled using a negative binomial model whereby the effect of study drug was considered only after controlling for ammonia level. […] Based on the model, the number of HE events was estimated for each level of ammonia. By comparing each level of ammonia to the lowest level, the pattern of the relationship could not only be described but also statistically tested through a priori contrasts.
The relationship between HE events and ammonia levels at day 7 (pre-dose), day 7 (four hours after dosing), day 14 (pre-dose), and day 14 (four hours after dosing) for each of these groups is summarized in FIGS. 2-6. […] The relationship between HE events and ammonia levels at day 1, day 7 (pre-dose), day 7 (four hours after dosing), day 14 (pre-dose), and day 14 (four hours after dosing) for each of these groups is summarized in Tables 1-5, respectively. In each table, the first three rows for each treatment group show results for the three category model ([0-1.0], [>1.0-1.5], and [>1.5]), while the next two rows show results for the two category model ([0-1.5] and [>1.5]). Note that, based on the statistical methodology, estimation of HE events for input category >1.5 in a two category model is not necessarily equal to the result for the three category model.

[2] = Conversion of PAA prodrug to urinary PAGN in 130 HE patients at steady state dosing; type: in vivo, human; details: steady state dosing with NaPBA or equivalent dose of HPN-100
Method: As disclosed herein, additional trials have been performed to evaluate the conversion of PAA to urinary PAGN in subjects with HE. Urinary PAGN output was measured in 130 HE patients during steady state dosing with either NaPBA or an equivalent dose of HPN-100. As summarized in Table 11, the mean percent conversion of PAA prodrug to urinary PAGN in HE patients was about 57%, with a 95% confidence interval range of 52-63%.

[3] = cited from earlier work; for Mean percent conversion of HPN-100 to urinary PAGN: 8 subjects
[4] = ammonia on day 7, four hours post-dose, [0-1.0] ULN, three category model
[5] = ammonia on day 7, four hours post-dose, [0-1.5] ULN, two category model
[6] = ammonia on day 7, four hours post-dose, [>1.0-1.5] ULN, three category model
[7] = ammonia on day 7, four hours post-dose, [>1.5] ULN, three category model
[8] = ammonia on day 7, four hours post-dose, [>1.5] ULN, two category model
[9] = ammonia on day 14 (pre-dose), [0-1.0] ULN, three category model
[10] = ammonia on day 14 (pre-dose), [0-1.5] ULN, two category model
[11] = ammonia on day 14 (pre-dose), [>1.0-1.5] ULN, three category model
[12] = ammonia on day 14 (pre-dose), [>1.5] ULN, three category model
[13] = ammonia on day 14 (pre-dose), [>1.5] ULN, two category model
[14] = ammonia on day 14, four hours post-dose, [0-1.0] ULN, three category model
[15] = ammonia on day 14, four hours post-dose, [0-1.5] ULN, two category model
[16] = ammonia on day 14, four hours post-dose, [>1.0-1.5] ULN, three category model
[17] = ammonia on day 14, four hours post-dose, [>1.5] ULN, three category model
[18] = ammonia on day 14, four hours post-dose, [>1.5] ULN, two category model
[19] = pre-dose ammonia on day 1, [0-1.0] ULN, three category model
[20] = pre-dose ammonia on day 1, [0-1.5] ULN, two category model
[21] = pre-dose ammonia on day 1, [>1.0-1.5] ULN, three category model
[22] = pre-dose ammonia on day 1, [>1.5] ULN, three category model
[23] = pre-dose ammonia on day 1, [>1.5] ULN, two category model
[24] = pre-dose ammonia on day 7, [0-1.0] ULN, three category model
[25] = pre-dose ammonia on day 7, [0-1.5] ULN, two category model
[26] = pre-dose ammonia on day 7, [>1.0-1.5] ULN, three category model
[27] = pre-dose ammonia on day 7, [>1.5] ULN, three category model
[28] = pre-dose ammonia on day 7, [>1.5] ULN, two category model

O=C(CCCc1ccccc1)OCC(COC(=O)CCCc1ccccc1)OC(=O)CCCc1ccccc1 [HPN-100, glyceryl tri-[4-phenylbutyrate]]
No. of per-subject HE Events Estimated over 16 weeks [1, 4]: 0.16 | No. of per-subject HE Events Estimated over 52 weeks [1, 4]: 0.51 | No. of per-subject HE Events Max [1, 4]: 2 | No. of per-subject HE Events Min [1, 4]: 0 | No. of per-subject HE Events Estimated over 16 weeks [1, 5]: 0.41 | No. of per-subject HE Events Estimated over 52 weeks [1, 5]: 1.34 | No. of per-subject HE Events Max [1, 5]: 5 | No. of per-subject HE Events Min [1, 5]: 0 | No. of per-subject HE Events Estimated over 16 weeks [1, 6]: 0.88 | No. of per-subject HE Events Estimated over 52 weeks [1, 6]: 2.85 | No. of per-subject HE Events Max [1, 6]: 5 | No. of per-subject HE Events Min [1, 6]: 0 | No. of per-subject HE Events Estimated over 16 weeks [1, 7]: 1.16 | No. of per-subject HE Events Estimated over 52 weeks [1, 7]: 3.77 | No. of per-subject HE Events Max [1, 7]: 4 | No. of per-subject HE Events Min [1, 7]: 0 | No. of per-subject HE Events Estimated over 16 weeks [1, 8]: 1.18 | No. of per-subject HE Events Estimated over 52 weeks [1, 8]: 3.85 | No. of per-subject HE Events Max [1, 8]: 4 | No. of per-subject HE Events Min [1, 8]: 0 | No. of per-subject HE Events Estimated over 16 weeks [1, 9]: 0.36 | No. of per-subject HE Events Estimated over 52 weeks [1, 9]: 1.18 | No. of per-subject HE Events Max [1, 9]: 5 | No. of per-subject HE Events Min [1, 9]: 0 | No. of per-subject HE Events Estimated over 16 weeks [1, 10]: 0.37 | No. of per-subject HE Events Estimated over 52 weeks [1, 10]: 1.21 | No. of per-subject HE Events Max [1, 10]: 5 | No. of per-subject HE Events Min [1, 10]: 0 | No. of per-subject HE Events Estimated over 16 weeks [1, 11]: 0.40 | No. of per-subject HE Events Estimated over 52 weeks [1, 11]: 1.29 | No. of per-subject HE Events Max [1, 11]: 2 | No. of per-subject HE Events Min [1, 11]: 0 | No. of per-subject HE Events Estimated over 16 weeks [1, 12]: 1.29 | No. of per-subject HE Events Estimated over 52 weeks [1, 12]: 4.21 | No. of per-subject HE Events Max [1, 12]: 4 | No. of per-subject HE Events Min [1, 12]: 0 | No. of per-subject HE Events Estimated over 16 weeks [1, 13]: 1.29 | No. of per-subject HE Events Estimated over 52 weeks [1, 13]: 4.21 | No. of per-subject HE Events Max [1, 13]: 4 | No. of per-subject HE Events Min [1, 13]: 0 | No. of per-subject HE Events Estimated over 16 weeks [1, 14]: 0.28 | No. of per-subject HE Events Estimated over 52 weeks [1, 14]: 0.92 | No. of per-subject HE Events Max [1, 14]: 4 | No. of per-subject HE Events Min [1, 14]: 0 | No. of per-subject HE Events Estimated over 16 weeks [1, 15]: 0.33 | No. of per-subject HE Events Estimated over 52 weeks [1, 15]: 1.09 | No. of per-subject HE Events Max [1, 15]: 4 | No. of per-subject HE Events Min [1, 15]: 0 | No. of per-subject HE Events Estimated over 16 weeks [1, 16]: 0.41 | No. of per-subject HE Events Estimated over 52 weeks [1, 16]: 1.33 | No. of per-subject HE Events Max [1, 16]: 2 | No. of per-subject HE Events Min [1, 16]: 0 | No. of per-subject HE Events Estimated over 16 weeks [1, 17]: 0.96 | No. of per-subject HE Events Estimated over 52 weeks [1, 17]: 3.13 | No. of per-subject HE Events Max [1, 17]: 4 | No. of per-subject HE Events Min [1, 17]: 0 | No. of per-subject HE Events Estimated over 16 weeks [1, 18]: 0.97 | No. of per-subject HE Events Estimated over 52 weeks [1, 18]: 3.14 | No. of per-subject HE Events Max [1, 18]: 4 | No. of per-subject HE Events Min [1, 18]: 0 | No. of per-subject HE Events Estimated over 16 weeks [1, 19]: 0.25 | No. of per-subject HE Events Estimated over 52 weeks [1, 19]: 0.80 | No. of per-subject HE Events Max [1, 19]: 2 | No. of per-subject HE Events Min [1, 19]: 0 | No. of per-subject HE Events Estimated over 16 weeks [1, 20]: 0.39 | No. of per-subject HE Events Estimated over 52 weeks [1, 20]: 1.26 | No. of per-subject HE Events Max [1, 20]: 5 | No. of per-subject HE Events Min [1, 20]: 0 | No. of per-subject HE Events Estimated over 16 weeks [1, 21]: 0.61 | No. of per-subject HE Events Estimated over 52 weeks [1, 21]: 1.98 | No. of per-subject HE Events Max [1, 21]: 5 | No. of per-subject HE Events Min [1, 21]: 0 | No. of per-subject HE Events Estimated over 16 weeks [1, 22]: 1.35 | No. of per-subject HE Events Estimated over 52 weeks [1, 22]: 4.37 | No. of per-subject HE Events Max [1, 22]: 4 | No. of per-subject HE Events Min [1, 22]: 0 | No. of per-subject HE Events Estimated over 16 weeks [1, 23]: 1.36 | No. of per-subject HE Events Estimated over 52 weeks [1, 23]: 4.41 | No. of per-subject HE Events Max [1, 23]: 4 | No. of per-subject HE Events Min [1, 23]: 0 | No. of per-subject HE Events Estimated over 16 weeks [1, 24]: 0.29 | No. of per-subject HE Events Estimated over 52 weeks [1, 24]: 0.95 | No. of per-subject HE Events Max [1, 24]: 2 | No. of per-subject HE Events Min [1, 24]: 0 | No. of per-subject HE Events Estimated over 16 weeks [1, 25]: 0.45 | No. of per-subject HE Events Estimated over 52 weeks [1, 25]: 1.47 | No. of per-subject HE Events Max [1, 25]: 5 | No. of per-subject HE Events Min [1, 25]: 0 | No. of per-subject HE Events Estimated over 16 weeks [1, 26]: 0.90 | No. of per-subject HE Events Estimated over 52 weeks [1, 26]: 2.92 | No. of per-subject HE Events Max [1, 26]: 5 | No. of per-subject HE Events Min [1, 26]: 0 | No. of per-subject HE Events Estimated over 16 weeks [1, 27]: 1.38 | No. of per-subject HE Events Estimated over 52 weeks [1, 27]: 4.50 | No. of per-subject HE Events Max [1, 27]: 4 | No. of per-subject HE Events Min [1, 27]: 0 | No. of per-subject HE Events Estimated over 16 weeks [1, 28]: 1.40 | No. of per-subject HE Events Estimated over 52 weeks [1, 28]: 4.56 | No. of per-subject HE Events Max [1, 28]: 4 | No. of per-subject HE Events Min [1, 28]: 0 | Mean percent conversion of PAA prodrug to urinary PAGN [2]: consistent | Mean percent conversion of HPN-100 to urinary PAGN ([3]; control group of healthy adults with normal hepatic function): 68.6% | Mean percent conversion of HPN-100 to urinary PAGN ([3]; hepatic impairment with cirrhosis, Child-Pugh score A): 79.6% | Mean percent conversion of HPN-100 to urinary PAGN ([3]; hepatic impairment with cirrhosis, Child-Pugh score B): 58.2% | Mean percent conversion of HPN-100 to urinary PAGN ([3]; hepatic impairment with cirrhosis, Child-Pugh score C): 85.0% | Overall mean percent conversion of HPN-100 to urinary PAGN ([3]; overall for the four subject groups): about 75%

O=C(O)CCCc1ccccc1 [sodium PBA, reference compound]
Mean percent conversion of PAA prodrug to urinary PAGN [2]: consistent
